From patent US20030147936A1, “Prostatic hormonal implants treatment of prostate cancer” (priority 2002, published 2003)
Like-named read-outs stand apart in the source and are kept apart here.

Tests used:
[1] = system: recurrent poor prognostic prostate cancer
Experimental: Since this hormonal treatment was rendered at recurrence after radiation therapy, it is termed as secondary hormonal treatment.
Later it was reduced to 1 mg per day.

[2] = system: recurrent prostate cancer; assay: Serum acid phosphatase of the same patient on oral DES; type: in vivo, human
[3] = system: hormone-refractory prostate cancer; settings: in vivo; cited from earlier work
[4] = system: prostate with cancer, prostatic volume greater than 50 cc; settings: before interstitial radioactive seed implant; cited from earlier work
[5] = system: rat breast tumor; assay: Implantation of iodoestradiol adsorbed sponges to rat breast tumor; type: in vivo; settings: sponges implanted to rat breast tumor; unpublished data
Text: In U.S. Pat. No. 4,321,208 (31; Sahadevan V: Preparation of directly iodinated steroid hormones and related compounds, U.S. Pat. No. 4,321,208; 1982) this inventor has described the methods for preparation of iodinated steroid hormones including the estradiol as early as in 1976, the time of filing the patent application.

[6] = target: estrogen receptor sites (Homo sapiens, UniProt P03372); settings: cited from earlier work
[7] = system: estrogen antiserum; settings: cited from earlier work
[8] = DES 1 mg three times per day by mouth, four years of follow-ups
[9] = June 10, 1993, pretreatment value, before DES was started, table dose 3 mg 3× daily
[10] = September 15, 1993, DES 3 mg 3× daily (table)

estrogen receptor sites, sequence (P03372 whole entry): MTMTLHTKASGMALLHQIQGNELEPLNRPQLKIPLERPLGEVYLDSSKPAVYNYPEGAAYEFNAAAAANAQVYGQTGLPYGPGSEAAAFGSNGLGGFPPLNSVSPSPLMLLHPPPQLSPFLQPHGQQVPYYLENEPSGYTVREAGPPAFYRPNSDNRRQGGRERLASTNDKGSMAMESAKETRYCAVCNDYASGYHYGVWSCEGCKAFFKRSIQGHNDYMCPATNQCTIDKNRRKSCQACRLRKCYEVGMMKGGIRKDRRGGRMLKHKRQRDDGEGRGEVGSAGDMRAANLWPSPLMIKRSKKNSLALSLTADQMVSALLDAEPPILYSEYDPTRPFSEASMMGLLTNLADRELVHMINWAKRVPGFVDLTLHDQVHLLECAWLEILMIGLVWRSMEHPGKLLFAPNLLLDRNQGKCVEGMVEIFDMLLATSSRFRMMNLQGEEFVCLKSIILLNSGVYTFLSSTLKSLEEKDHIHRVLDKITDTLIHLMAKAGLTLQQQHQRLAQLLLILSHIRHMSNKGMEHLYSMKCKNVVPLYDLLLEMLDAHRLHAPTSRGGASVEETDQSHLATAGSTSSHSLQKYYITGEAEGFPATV

For `CC/C(=C(/CC)c1ccc(O)cc1)c1ccc(O)cc1` [DES, diethylstilbestrol], the “PSA reduced to” value ([1]; 1 mg DES three times a day, patients with serum PSA exceeding over 300 ng per ml) was “less than 1 ng per ml”, the PSA ([1]; August 4, 1996, DES 1 mg daily) was greater than 0.1 ng/mL and the PSA ([1]; August 5, 1997, DES 1 mg daily) was greater than 0.1 ng/mL. The “serum PSA nadir value during treatment with DES” value [1, 8] was 0.1 ng per ml, the “PSA reduced to” value ([1]; DES oral dose of 1 mg daily, 363 ng per ml before treatment) was 0.1 ng per ml and the PSA [1, 9] was 363.0 ng/mL. It also gave a PSA ([1]; June 13, 1994, DES 3 mg 3× daily (table)) greater than 0.1 ng/mL, a PSA ([1]; May 3, 1995, DES 3 mg 3× daily (table)) greater than 0.1 ng/mL and a PSA ([1]; September 7, 1993, DES 3 mg 3× daily (table)) of 38.4 ng/mL. For the same molecule, the PSA [1, 10] was 4.5 ng/mL, the PSA ([1]; September 26, 1994, DES 3 mg 3× daily (table)) was greater than 0.1 ng/mL and the “PSA value, maintained at low nadir” value ([1]; continued DES alone, 1 mg three times a day, later 1 mg per day, maintained for four years, pretreatment 363 ng per ml) was “less than 0.1 ng”. For the same molecule, the “decrease of serum PSA (FIG. 1)” value ([1]; from pretreatment 363 ng per ml, rapidly) was “normal level”, the “acid phosphatase nadir value during treatment with DES” value [2, 8] was 0.3 international unit and the “Acid Phosphatase” value [2, 9] was 48.0 iu. For the same molecule, the “Acid Phosphatase” value [2, 10] was 0.3 iu, the “decrease of serum acid phosphatase (FIG. 3)” value ([2]; from pretreatment 48 international units per ml, rapidly) was “normal level” and the “serum acid phosphatase level” value ([2]; three months after DES 1 mg three times a day, pretreatment 48.0) was < 0.3 international units per ml. The “effectiveness in hormone-refractory prostate cancer” value [3] was “effective”.

In the case of LHRH, the “reduction of the initial prostatic volume” value [4] is given as “about 40 per cent”.

For iodoestradiol, the tumor regression [5] is listed as “excellent tumor regression”, the “binding to estrogen receptor sites” value [6] is listed as “binds” and the “binding to estrogen antiserum” value [7] is listed as “binds”.
